Reference: publication PMC4739506 (Nature chemistry, 2013)

Test system: P. falciparum 3D7 parasites (schizonts)
Assay: YnMyr treatment of schizonts: morphology and life cycle progression
Format: cell-based
Settings: up to 50 μM, 5 h

C#CCCCCCCCCCCCC(=O)O [YnMyr, tetradec-13-ynoic acid]
changes in morphology or life cycle progression: no changes were observed in morphology or life cycle progression
